A word on the IC50: it is the concentration that inhibits the measured activity by half. Higher therefore signals lower potency.

SMILES strings stand for the structures. Like-named read-outs stand apart in the source and are kept apart here.

Series [1] can be described thus: In vivo p.o. dosing: plasma and colon tissue concentrations (Protocols 1 and 2). Also noted: species or system female C57BL/6 mice. As to conditions: female, C57BL/6, mouse, po, mice, 25 mg/kg p.o. Here is the method: These protocols are described below under the heading In vivo Studies. Three non-fasted female C57BL/6 mice were orally administered test compound at a dose of 25 mg/kg p.o. as a solution in 20% hydroxypropyl-beta-cyclodextrin (HPβCD) at a dose volume of 5 mL/kg. Blood samples were collected at 0.5, 2, and 4 h post dose via retro-orbital bleed or venipuncture of the dorsal metatarsal vein. Blood samples were collected into tubes containing anticoagulant (Heparin-Na) and placed on wet ice. The plasma fraction was separated by centrifugation and frozen at −20° C. for up to 4 h and −80° C. after 4 h unless analyzed shortly after sample collection. Colon samples were collected at 4 h post dose. […] The colon was further washed by putting it in 5 mL of saline and shaken for 5 seconds. The colon sample was then patted dry, weighed, and homogenized as 1 part tissue (g) to 4 parts HPLC grade water (mL). Concentrations of the compound in plasma and colon homogenate were determined using a qualified liquid chromatography-triple quadrupole mass spectrometry (LC-MS/MS) method. […] Three non-fasted female C57BL/6 mice were orally administered test compound at a dose of 25 mg/kg p.o. as a solution in 20% HPβCD at a dose volume of 5 mL/kg. Blood samples were collected at 0.5, 2, and 4 h post dose via retro-orbital bleed or dorsal metatarsal vein. Blood samples were collected into tubes containing anticoagulant (Heparin-Na) and placed on wet ice. The plasma fraction was separated by centrifugation and frozen at −20° C. for up to 4 h and −80° C. after 4 h unless analyzed shortly after sample collection. Colon samples were collected at 4 h post dose. From 2 cm below the cecum, a 4 cm sample of the colon was dissected, cut open on the longitudinal axis, and the solid contents removed by flushing with 2 mL of saline. The colon was further washed by putting it in 5 mL of saline and shaken for 5 seconds. The colon sample was then patted dry, weighed, and homogenized as 1 part tissue (g) to 4 parts HPLC grade water (mL). Concentrations of the compound in plasma and colon homogenate were determined using a qualified liquid chromatography-triple quadrupole mass spectrometry (LC-MS/MS) method.

The test system of series [2] is GM-CSF pSTAT5 (JAK2/JAK2). The series is described as follows: GM-CSF pSTAT5 (JAK2/JAK2) cellular assay (AlphaLISA, PBMCs). Format: cell-based. The note with it: PBMC, GM-CSF at 11 pg/mL. How it is done: The AlphaLISA assay (based on Alpha Technology from PerkinElmer) was performed by first plating freshly thawed PBMCs (Biological Specialty Corporation) in 384-well plates at 30,000 cells per 4 µL per well in HBSS containing 0.1% IgG-free, protease-free BSA (Jackson ImmunoResearch Cat. No. 001-000-161). The cells were then treated with 2 μL/well of compounds diluted in DMSO at half-log titrated concentrations, with a highest test concentration of […] and 0.5% final DMSO concentration, for thirty minutes at 37° C. Next, the cells were stimulated with 2 μL/well of GM-CSF (R&D Systems Cat. No. 215-GM-050) at 11 pg/mL for fifteen minutes at 37° C. The cellular reactions were terminated by the addition of 2 µL/well of lysis buffer (PerkinElmer Cat. No. ALSU-PST5-A10K) followed by an incubation of five minutes at room temperature. 5 μL/well of acceptor mix (PerkinElmer Cat. No. ALSU-PST5-A10K) was added to the cells and incubated in the dark for one hour at room temperature. Then, 5 μL/well of donor mix (PerkinElmer Cat. No. ALSU-PST5-A10K) was added to the cells and incubated in the dark overnight at room temperature. Finally, the plates were read on a PerkinElmer EnVision for detection of the time-resolved fluorescence signal. The percentage of GM-CSF-dependent pSTAT5 inhibition was determined at the compound test concentrations; and for each compound, a dose curve was generated and the IC50 was calculated. Compound IC50 was calculated by nonlinear regression, sigmoidal dose response analysis of the half-log dilution titration curve of the compound concentration vs. Alpha signal. The term “Alpha” is defined in the IL-2 pSTAT5 (JAK1/JAK3) cellular assay description.
In general terms: Bead proximity is the source of the signal in Alpha formats.

Where [3] appears, read: colon, read-out: Colon Concentration After p.o. Dosing, Mean.
Where [4] appears, read: plasma, read-out: Plasma Concentration After p.o. Dosing, Mean.

Take `CC(C)(O)CNC(=O)Cc1nc2cnc3[nH]ccc3c2n1[C@H]1CC[C@H](CC#N)CC1` [Ex. 1, 2-(1-((1r,4r)-4-(Cyanomethyl)cyclohexyl)-1,6-dihydroimidazo[4,5-d]pyrrolo[2,3-b]pyridin-2-yl)-N-(2-hydroxy-2-methylpropyl)acetamide]: the concentration at 4 h in series [1] (setting [3]) was 8590 ng/g. Moreover, in series [1] (setting [4]), the concentration at 0.5 h is 13.4 ng/mL, the concentration at 2 h came out at 6.1 ng/mL and the concentration at 4 h worked out at 3.3 ng/mL.
Regarding `N#CCC1CCC(n2c(-c3c[nH]cn3)nc3cnc4[nH]ccc4c32)CC1` (stereo not shown) [Ex. 2, 2-((1r,4r)-4-(2-(1H-Imidazol-4-yl)imidazo[4,5-d]pyrrolo[2,3-b]pyridin-1(6H)-yl)cyclohexyl)acetonitrile], the concentration at 4 h in series [1] (setting [3]) turned out to be 7600 ng/g. Moreover, in series [1] (setting [4]), the concentration at 0.5 h was 24.5 ng/mL, the concentration at 2 h was found to be 4.2 ng/mL and the concentration at 4 h was 1.3 ng/mL. This compound gave an IC50 in series [2] of 61 nM.
For `N#CC[C@H]1CC[C@H](n2c(CC(=O)NCC3CC3)nc3cnc4[nH]ccc4c32)CC1` [Ex. 3, 2-(1-((1r,4r)-4-(Cyanomethyl)cyclohexyl)-1,6-dihydroimidazo[4,5-d]pyrrolo[2,3-b]pyridin-2-yl)-N-(cyclopropylmethyl)acetamide], the concentration at 4 h in series [1] (setting [3]) came out at 2150 ng/g. In series [1] (setting [4]), the concentration at 0.5 h came out at 41.4 ng/mL, the concentration at 2 h is 3.9 ng/mL and the concentration at 4 h came to 1.5 ng/mL. In series [2], this compound yielded an IC50 of 21.9 nM.
For `N#CCCNC(=O)Cc1nc2cnc3[nH]ccc3c2n1[C@H]1CC[C@H](CC#N)CC1` [Ex. 4, N-(2-Cyanoethyl)-2-(1-((1r,4r)-4-(cyanomethyl)cyclohexyl)-1,6-dihydroimidazo[4,5-d]pyrrolo[2,3-b]pyridin-2-yl)acetamide], in series [1] (setting [3]), the concentration at 4 h stood at 4450 ng/g. In series [1] (setting [4]), the concentration at 0.5 h is 12.9 ng/mL, the concentration at 2 h is 7.5 ng/mL and the concentration at 4 h was 3.3 ng/mL. Also, the IC50 in series [2] stood at 119 nM.
Take `N#CC[C@H]1CC[C@H](n2c(CC(=O)NC3CCOCC3)nc3cnc4[nH]ccc4c32)CC1` [Ex. 5, 2-(1-((1r,4r)-4-(Cyanomethyl)cyclohexyl)-1,6-dihydroimidazo[4,5-d]pyrrolo[2,3-b]pyridin-2-yl)-N-(tetrahydro-2H-pyran-4-yl)acetamide]: the concentration at 4 h in series [1] (setting [3]) was 5330 ng/g. For the same compound, in series [1] (setting [4]), the concentration at 0.5 h was 31.9 ng/mL, the concentration at 2 h turned out to be 8.8 ng/mL and the concentration at 4 h worked out at 6 ng/mL. The compound further yielded an IC50 in series [2] of 28.9 nM.
For `N#CC[C@H]1CC[C@H](n2c(CC(=O)NCC3CCOCC3)nc3cnc4[nH]ccc4c32)CC1` [Ex. 10, 2-(1-((1r,4r)-4-(Cyanomethyl)cyclohexyl)-1,6-dihydroimidazo[4,5-d]pyrrolo[2,3-b]pyridin-2-yl)-N-((tetrahydro-2H-pyran-4-yl)methyl)acetamide], the concentration at 4 h in series [1] (setting [3]) stood at 11700 ng/g. In series [1] (setting [4]), the concentration at 0.5 h turned out to be 18.8 ng/mL, the concentration at 2 h worked out at 3 ng/mL and the concentration at 4 h was found to be 1.7 ng/mL. The IC50 in series [2] came out at 25.1 nM.
For `CC(C)(C#N)CNC(=O)Cc1nc2cnc3[nH]ccc3c2n1[C@H]1CC[C@H](CC#N)CC1` [Ex. 22, N-(2-Cyano-2-methylpropyl)-2-(1-((1r,4r)-4-(cyanomethyl)cyclohexyl)-1,6-dihydroimidazo[4,5-d]pyrrolo[2,3-b]pyridin-2-yl)acetamide], in that order: 12000 ng/g, 47 ng/mL, 9.6 ng/mL, 5 ng/mL and 67.3 nM.
In the case of `N#CC[C@H]1CC[C@H](n2c(CC(=O)NCC3(O)CCC3)nc3cnc4[nH]ccc4c32)CC1` [Ex. 34, 2-(1-((1r,4r)-4-(Cyanomethyl)cyclohexyl)-1,6-dihydroimidazo[4,5-d]pyrrolo[2,3-b]pyridin-2-yl)-N-((1-hydroxycyclobutyl)methyl)acetamide], the concentration at 4 h in series [1] (setting [3]) stood at 7400 ng/g. Further, in series [1] (setting [4]), the concentration at 0.5 h was determined as 43.1 ng/mL, the concentration at 2 h was 5.4 ng/mL and the concentration at 4 h is 2.6 ng/mL. In series [2], this compound came in with an IC50 of 33.8 nM.
Consider `N#CCC12CCC(NC(=O)Cc3nc4cnc5[nH]ccc5c4n3[C@H]3CC[C@H](CC#N)CC3)(CC1)C2` [Ex. 55, N-(4-(Cyanomethyl)bicyclo[2.2.1]heptan-1-yl)-2-(1-((1r,4r)-4-(cyanomethyl)cyclohexyl)-1,6-dihydroimidazo[4,5-d]pyrrolo[2,3-b]pyridin-2-yl)acetamide], for which the concentration at 4 h in series [1] (setting [3]) was 3000 ng/g. Moreover, in series [1] (setting [4]), the concentration at 0.5 h was determined as 26.6 ng/mL, the concentration at 2 h worked out at 3.2 ng/mL and the concentration at 4 h was determined as 3.1 ng/mL. The IC50 in series [2] stood at 44.6 nM.
For `N#CC[C@H]1CC[C@H](n2c(CC(=O)NCC3(O)CC3)nc3cnc4[nH]ccc4c32)CC1` [Ex. 85, 2-(1-((1r,4r)-4-(Cyanomethyl)cyclohexyl)-1,6-dihydroimidazo[4,5-d]pyrrolo[2,3-b]pyridin-2-yl)-N-((1-hydroxycyclopropyl)methyl)acetamide], the concentration at 4 h in series [1] (setting [3]) is 5880 ng/g. Moreover, in series [1] (setting [4]), the concentration at 0.5 h is 15.6 ng/mL, the concentration at 2 h turned out to be 4.2 ng/mL and the concentration at 4 h is 2.3 ng/mL. In series [2], this compound displayed an IC50 of 75.4 nM.

Values taken from patent US10981911B2, “Imidazopyrrolopyridine as inhibitors of the JAK family of kinases” (Janssen Pharmaceutica NV, priority 2016, dated 2021).
